Laboratory results as given in patent US20200069691A1, “HETEROCYCLIC COMPOUNDS AS HIV PROTEASE INHIBITORS” (Merck Sharp & Dohme Corp., priority 2016, published 2020).

Target: T1, wild-type HIV-1 protease (Human immunodeficiency virus type 1 group M subtype B, UniProt P04585)
T1 construct: Escherichia coli expressed wild-type HIV-1 protease protein
Test: Assay for Inhibition of Microbial Expressed HIV Protease (peptide substrate cleavage, LC-MS/MS readout)
Format: biochemical
Settings: E. coli expressed wild-type HIV-1 protease, mean of at least two independent experiments, read-out: HIV Pr Enzyme HIV1 PR IC50
Summary of the method: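 E. coli-expressed wild-type HIV-1 protease ([…]) was preincubated with inhibitor 30 min at room temperature in pH 5.5 acetate buffer (100 mM NaCl, 0.1% BSA). Then 400 μM octapeptide substrate was added and reacted 1 h at 30 °C; inhibition came from LC-MS/MS product peak areas, mean of ≥2 experiments.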

Row | SMILES | IC50 [nM]
1 | N=C1NC(c2ccccc2)(c2ccccc2)C(=O)N1Cc1ccc(C(F)(F)F)c(C(=O)N2CCNC(=O)C2)c1 [Compound 160, 4-({5-[(2-imino-5-oxo-4,4-diphenylimidazolidin-1-yl)methyl]-2-(trifluoromethyl)phenyl}-carbonyl)piperazin-2-one] | 20.2
2 | COC(=O)N1CCN(C(=O)c2cc(CN3C(=N)NC(c4ccccc4)(c4ccccc4)C3=O)ccc2C(F)(F)F)CC1 [Compound 161, methyl 4-({5-[(2-imino-5-oxo-4,4-diphenylimidazolidin-1-yl)methyl]-2-(trifluoromethyl)phenyl}-carbonyl)piperazine-1-carboxylate] | 25.2
3 | CC(C)CCC1(c2ccccc2)NC(=N)N(Cc2ccc(C(F)(F)F)c(C(=O)N3CCC(F)(F)C3)c2)C1=O (stereo not shown) [Compound 162, 3-{3-[(3,3-difluoropyrrolidin-1-yl)carbonyl]-4-(trifluoromethyl)-benzyl}-2-imino-5-(3-methylbutyl)-5-phenylimidazolidin-4-one] | 32.2
4 | CC(C)CCC1(c2ccc(F)cc2)NC(=N)N(Cc2ccc(C(F)(F)F)c(C(=O)N3CC[C@@]4(c5ccccc5)NOC[C@H]4C3)c2)C1=O (stereo partly drawn) [Compound 163, 5-(4-fluorophenyl)-2-imino-5-(3-methylbutyl)-3-[3-{[(3aS,7aR)-7a-phenylhexahydro-isoxazolo[4,3-c]pyridin-5(3H)-yl]carbonyl}-4-(trifluoromethyl)benzyl] imidazolidin-4-one] | 33.3
5 | CC(C)CCC1(c2ccc(F)cc2)NC(=N)N(Cc2ccc(C(F)(F)F)c(C(=O)N3CCc4c(cnn4-c4ccccc4)C3)c2)C1=O (stereo not shown) [Compound 164, 5-(4-fluorophenyl)-2-imino-5-(3-methylbutyl)-3-{3-[(1-phenyl-1,4,6,7-tetrahydro-5H-pyrazolo[4,3-c]pyridin-5-yl)carbonyl]-4-(trifluoromethyl)benzyl} imidazolidin-4-one] | 34.1
6 | COc1ccc2c(c1)CCN(C(=O)c1cc(CN3C(=N)NC(c4ccc(F)cc4)(c4ccc(F)cc4)C3=O)ccc1C(F)(F)F)CC2 [Compound 165, 5.5-bis(4-fluorophenyl)-2-imino-3-{3-[(7-methoxy-1,2,4,5-tetrahydro-3H-3-benzazepin-3-yl)carbonyl]-4-(trifluoromethyl)benzyl} imidazolidin-4-one] | 34.1
7 | CC(C)CCC1(c2ccccc2)NC(=N)N(Cc2ccc(C(F)(F)F)c(C(=O)N3CCC3)c2)C1=O (stereo not shown) [Compound 166, 3-[3-(azetidin-1-ylcarbonyl)-4-(trifluoromethyl)benzyl]-2-imino-5-(3-methylbutyl)-5-phenylimidazolidin-4-one] | 34.9
8 | CC(C)CCC1(c2ccc(F)cc2)NC(=N)N(Cc2ccc(C(F)(F)F)c(C(=O)N3Cc4cncnc4C3)c2)C1=O (stereo not shown) [Compound 167, 3-[3-(5,7-dihydro-6H-pyrrolo[3,4-d]pyrimidin-6-ylcarbonyl)-4-(trifluoromethyl)benzyl]-5-(4-fluorophenyl)-2-imino-5-(3-methylbutyl)imidazolidin-4-one] | 36.9
9 | CC(C)CCC1(c2ccc(F)cc2)NC(=N)N(Cc2ccc(C(F)(F)F)c(C(=O)N3Cc4nccnc4C3)c2)C1=O (stereo not shown) [Compound 168, 3-[3-(5,7-dihydro-6H-pyrrolo[3,4-b]pyrazin-6-ylcarbonyl)-4-(trifluoromethyl)benzyl]-5-(4-fluorophenyl)-2-imino-5-(3-methylbutyl)imidazolidin-4-one] | 38.6
10 | CC(C)CCC1(c2ccc(F)cc2)NC(=N)N(Cc2ccc(C(F)(F)F)c(C(=O)N3C[C@H]4OCc5cnnn5[C@H]4C3)c2)C1=O (stereo partly shown) [Compound 169] | 38.6
11 | CC(C)CCC1(c2ccccc2)NC(=N)N(Cc2ccc(C(F)(F)F)c(C(=O)N3CCCC3)c2)C1=O (stereo not shown) [Compound 170, 2-imino-5-(3-methylbutyl)-5-phenyl-3-[3-(pyrrolidin-1-ylcarbonyl)-4-(trifluoromethyl)benzyl] imidazolidin-4-one] | 40.3
12 | N=C1NC(c2ccccc2)(c2ccccc2)C(=O)N1Cc1ccc(C(F)(F)F)c(C(=O)N2CCN(c3ncccn3)CC2)c1 [Compound 171, 2-imino-5,5-diphenyl-3-{3-[(4-pyrimidin-2-ylpiperazin-1-yl)carbonyl]-4-(trifluoromethyl)-benzyl}imidazolidin-4-one] | 53
13 | N=C1NC(c2ccc(F)cc2)(c2ccc(F)cc2)C(=O)N1Cc1ccc(C(F)(F)F)c(C(=O)N2CCC(F)(F)C2)c1 [Compound 172, 3-{3-[(3,3-difluoropyrrolidin-1-yl)carbonyl]-4-(trifluoromethyl)-benzyl}-5,5-bis(4-fluorophenyl)-2-iminoimidazolidin-4-one] | 53.3
14 | N=C1NC(c2ccc(F)cc2)(c2ccc(F)cc2)C(=O)N1Cc1ccc(C(F)(F)F)c(C(=O)N2CCC2)c1 [Compound 173, 3-[3-(azetidin-1-ylcarbonyl)-4-(trifluoromethyl)benzyl]-5,5-bis(4-fluorophenyl)-2-iminoimidazolidin-4-one] | 53.3
15 | CC(C)C[C@@]1(c2ccccc2)NC(=N)N(Cc2ccc(C(F)(F)F)c(C(=O)N3Cc4nccnc4C3)c2)C1=O [Compound 174, (5S)-3-[3-(5,7-dihydro-6H-pyrrolo[3,4-b]pyrazin-6-ylcarbonyl)-4-(trifluoromethyl)-benzyl]-2-imino-5-(2-methylpropyl)-5-phenylimidazolidin-4-one] | 54.9
16 | CC(C)CCC1(c2ccc(F)cc2)NC(=N)N(Cc2ccc(C(F)(F)F)c(C(=O)N3C[C@@H]4ON=C(Nc5ccccc5)[C@@H]4C3)c2)C1=O (stereo partly shown) [Compound 175] | 59.7
17 | CC(C)CCC1(c2ccccc2)NC(=N)N(Cc2ccc(C(F)(F)F)c(C(=O)N3CCC(C)(C)C3)c2)C1=O (stereo not shown) [Compound 176, 3-{3-[(3,3-dimethylpyrrolidin-1-yl)carbonyl]-4-(trifluoromethyl)benzyl}-2-imino-5-(3-methylbutyl)-5-phenylimidazolidin-4-one] | 63.4
18 | CC(C)CC1(c2ccccc2)NC(=N)N(Cc2ccc(C(F)(F)F)c(C(=O)N3CCC(F)(F)C3)c2)C1=O (stereo not shown) [Compound 177, 3-{3-[(3,3-difluoropyrrolidin-1-yl)carbonyl]-4-(trifluoromethyl)benzyl}-2-imino-5-(2-methylpropyl)-5-phenylimidazolidin-4-one] | 70.3
19 | CC(=O)NCc1cc2c(o1)CCN(C(=O)c1cc(CN3C(=N)NC(CCC(C)C)(c4ccc(F)cc4)C3=O)ccc1C(F)(F)F)C2 (stereo not shown) [Compound 178, N-[(5-{[5-{[4-(4-fluorophenyl)-2-imino-4-(3-methylbutyl)-5-oxoimidazolidin-1-yl]methyl}-2-(trifluoromethyl)phenyl]carbonyl}-4,5,6,7-tetrahydrofuro[3,2-c]pyridin-2-yl)methyl]acetamide] | 71.6
20 | CC(C)CC1(c2ccccc2)NC(=N)N(Cc2ccc(C(F)(F)F)c(C(=O)N3CCC3)c2)C1=O (stereo not shown) [Compound 179, 3-[3-(azetidin-1-ylcarbonyl)-4-(trifluoromethyl)benzyl]-2-imino-5-(2-methylpropyl)-5-phenylimidazolidin-4-one] | 78.6
21 | N=C1NC(c2ccc(F)cc2)(c2ccc(F)cc2)C(=O)N1Cc1ccc(C(F)(F)F)c(C(=O)N2CCCC2)c1 [Compound 180, 5,5-bis(4-fluorophenyl)-2-imino-3-[3-(pyrrolidin-1-ylcarbonyl)-4-(trifluoromethyl)benzyl] imidazolidin-4-one] | 78.8
22 | CC1(C)CCN(C(=O)c2cc(CN3C(=N)NC(c4ccc(F)cc4)(c4ccc(F)cc4)C3=O)ccc2C(F)(F)F)C1 [Compound 181, 3-{3-[(3,3-dimethylpyrrolidin-1-yl)carbonyl]-4-(trifluoromethyl)benzyl}-5,5-bis(4-fluorophenyl)-2-iminoimidazolidin-4-one] | 89.8
23 | N#Cc1ncc2c(n1)CN(C(=O)c1cccc(CN3C(=N)NC(c4ccc(F)cc4)(c4ccc(F)cc4)C3=O)c1)C2 [Compound 182, 6-[(3-{[4,4-bis(4-fluorophenyl)-2-imino-5-oxoimidazolidin-1-yl]methyl}phenyl)carbonyl]-6,7-dihydro-5H-pyrrolo[3,4-d]pyrimidine-2-carbonitrile] | 1.7
24 | COC(=O)Nc1ncc2c(n1)CN(C(=O)c1cccc(CN3C(=N)N[C@](CCC(C)C)(c4ccccc4)C3=O)c1)C2 [Compound 183, methyl {6-[(3-{[(4R)-2-imino-4-(3-methylbutyl)-5-oxo-4-phenylimidazolidin-1-yl]methyl}phenyl)carbonyl]-6,7-dihydro-5H-pyrrolo[3,4-d]pyrimidin-2-yl}carbamate] | 2.26
25 | N=C1NC(c2ccccc2)(c2ccccc2)C(=O)N1Cc1cccc(C(=O)N2Cc3[nH]nc(C(F)(F)F)c3C2)c1 [Compound 184, 2-imino-5,5-diphenyl-3-(3-{[3-(trifluoromethyl)-4,6-dihydropyrrolo[3,4-c]pyrazol-5(1H)-yl]carbonyl}benzyl) imidazolidin-4-one] | 2.74
26 | C[C@H](c1cccc(C(=O)N2Cc3nccnc3C2)c1)N1C(=N)NC(c2ccccc2)(c2ccccc2)C1=O [Compound 185, 3-{(1R)-1-[3-(5,7-dihydro-6H-pyrrolo[3,4-b]pyrazin-6-ylcarbonyl)phenyl]ethyl}-2-imino-5,5-diphenylimidazolidin-4-one] | 40.5
27 | C[C@H](c1cccc(C(=O)N2Cc3nccnc3C2)c1)N1C(=N)NC(c2ccc(F)cc2)(c2ccc(F)cc2)C1=O [Compound 186, 3-{(1R)-1-[3-(5,7-dihydro-6H-pyrrolo[3,4-b]pyrazin-6-ylcarbonyl)phenyl]ethyl}-5,5-bis(4-fluorophenyl)-2-iminoimidazolidin-4-one] | 3.24
28 | C[C@H](c1cccc(C(=O)N2Cc3ccccc3C2)c1)N1C(=N)NC(c2ccccc2)(c2ccccc2)C1=O [Compound 187, 3-{(1R)-1-[3-(1,3-dihydro-2H-isoindol-2-ylcarbonyl)phenyl]ethyl}-2-imino-5,5-diphenylimidazolidin-4-one] | 3.67
